Measurements: patent publication US10414718B2, “Dezocine analogue” (priority 2016, dated 2019)
pEC50, pIC50: −log10 of the molar value. Where two headings read alike, the source gives them in different places.

What was measured:
[1] = Pharmacokinetics of intramuscular injection of Compound 21 and prodrug thereof in rats; details: SD, in vivo, im, rat
Text: 3. Pharmacokinetics of Intramuscular Injection of Compound 21 and Prodrug Thereof in Rats
Mixing the test compound with an appropriate amount of sesame oil, followed by vortex and sonicate, to prepare and obtain 25 μmol/mL homogeneous suspension. […] Collecting whole blood in certain time, adding precipitant (acetonitrile, methanol and analytical internal standard) and centrifugating.

[2] = target: T1, δ opioid receptor (Homo sapiens, UniProt P41143); test: FLIPR intracellular calcium signal test, HEK293-δ cells; assay type: cell-based; details: for pEC50: EC50 (activation) test, read-out: Delt receptor EC50; for pIC50: IC50 (inhibition) test against EC80 of positive agonist, read-out: Delt receptor IC50
T1 construct: expressed in transfected cells
T1 sequence (P41143 whole entry): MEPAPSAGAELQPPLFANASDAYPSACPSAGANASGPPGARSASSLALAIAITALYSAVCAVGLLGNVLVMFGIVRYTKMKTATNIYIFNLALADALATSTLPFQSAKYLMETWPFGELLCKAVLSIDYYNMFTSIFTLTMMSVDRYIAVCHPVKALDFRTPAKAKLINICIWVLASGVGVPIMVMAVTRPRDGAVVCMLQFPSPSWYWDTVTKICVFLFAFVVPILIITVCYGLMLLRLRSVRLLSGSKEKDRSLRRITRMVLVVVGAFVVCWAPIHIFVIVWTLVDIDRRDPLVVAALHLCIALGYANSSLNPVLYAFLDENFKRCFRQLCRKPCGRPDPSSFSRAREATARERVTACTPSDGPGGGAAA
Method: (§1) Fluorescence imaging plate reader FLIPR was used to detect changes of intracellular calcium signals. EC50 and IC50 values of the compounds were used as indicators to evaluate the activation or inhibition of the compounds on μ, κ, and δ opioid receptors.
(§2) Cell lines: HEK293-μ, HEK293-κ and HEK293-δ, stable-transfected cell lines HEK293-μ, HEK293-κ and HEK293-δ; Cell culture media (DMEM, Invitrogen #11965118, 10% fetal bovine serum Invitrogen #10099141, Geneticin Selective Antibiotic (G418) 300 μg/mL, Invitrogen #10131027, Blasticidin-S HCL 2 ug/mL Invitrogen #A1113902)
(§3) 1. Cell Seeding (HEK293-μ, HEK293-κ and HEK293-δ Cells)
(§4) 1) Preheating medium, pancreatic enzyme, and DPBS in a 37° C. water bath. Aspirating the culture medium from the cell culture flask and washing it with 10 mL DPBS;
(§5) 2) Adding the preheated pancreatic enzyme solution to the cell culture flask, rotating the flask slightly to make the pancreatic enzymes evenly cover the cell surface of the flask, and then putting it into a 37° C., 5% CO2 incubator to digest for 1-2 minutes;
(§6) 3) Suspending the cells with 10-15 mL culture medium in each T150 cm^2 cell culture flask, centrifugating at 800 rpm for 5 minutes, and resuspending the cells with 10 mL culture medium, aspirating 1 mL cell resuspension to be counted with Vi-cell;
(§7) 4) Diluting HEK293-μ, HEK293-κ and HEK293-δ cells to 5×10^5/mL with culture medium, use multichannel pipette to add diluted cells into 384 plate (Greiner #781946) (50 μL/well, 25000 cells/well for HEK293-μ, HEK293-κ and HEK293-δ cells). Placing the cell plate in a 37° C., 5% CO2 incubator overnight.
(§8) 2. Adding Compound Samples:
(§9) 1) Diluting the compound to 20 mM with DMSO, 3 fold diluted, 8 gradients, double reduplicative wells, and adding it to the compound plate using an Echo ultrasonic liquid handler device (Echo liquid handler).
(§10) 1) Washing off the cell culture medium in 384 plate with vacuum pump, adding 20 μL Fluo-4 Direct fluorescent dye, then incubating in a 37° C., 5% CO2 incubator for 50 minutes, followed by equilibrating at room temperature for 10 minutes.
(§11) 2) EC50 test: Adding 20 uL HBSS buffer (containing 20 mM HEPES) to the compound plate, mixing well and centrifugating. Placing the cell plate and compound plate into FLIPR and reading the fluorescence value.
(§12) Calculating the EC80 value with the EC50 value of the positive agonist, preparing 4× EC80 solution, adding it to the 384 compound plate by multichannel pipette, and mixing well and centrifugating.
(§13) 4) IC50 test: In FLIPR, successively placing 4× EC80 plate, cell plate, FLIPR tip, running the program and reading the fluorescence value.
(§14) 4. Data Analyzing: Using Prism 5.0 to Analyze the Data and Calculate the EC50 and IC50 Values of the Compounds.

[3] = Pharmacokinetic study of intravenous injection in rats; details: SD, rat, plasma, 1 mg/kg
Text: Through the in vivo drug metabolism test in rats, values such as Cmax, t1/2, AUC, MRT and B/P ratio of the compound in vivo were used as indicators to evaluate the metabolism of the compound in rats.
1. Pharmacokinetic Study of Intravenous Injection of Dezocine and Analogues Thereof in Rats
Mixing the test compound with an appropriate amount of physiological saline solution of 20% polyethylene glycol 400, followed by vortex and sonicate, and adjusting the pH to 4-5 with hydrochloric acid to obtain 5 mg/mL approximately clear solution, filtering the solution by microporous filtering film to be used. Selecting 6 to 9 weeks old SD rats (Shanghai Sleek Laboratory Animal Co., Ltd.) and intravenously injecting the test compound solution at a dose of 1 mg/kg. Collecting whole blood in certain time to prepare and obtain plasma. Analyzing drug concentrations by LC-MS/MS method and calculating pharmacokinetic parameters using Phoenix WinNonlin software (Pharsight, USA).

[4] = target: T2, μ opioid receptor (Homo sapiens, UniProt P35372); test: FLIPR intracellular calcium signal test, HEK293-μ cells; assay type: cell-based; details: for pEC50: EC50 (activation) test, read-out: Mu receptor EC50; for pIC50: IC50 (inhibition) test against EC80 of positive agonist, read-out: Mu receptor IC50
T2 construct: expressed in transfected cells
T2 sequence (P35372 whole entry): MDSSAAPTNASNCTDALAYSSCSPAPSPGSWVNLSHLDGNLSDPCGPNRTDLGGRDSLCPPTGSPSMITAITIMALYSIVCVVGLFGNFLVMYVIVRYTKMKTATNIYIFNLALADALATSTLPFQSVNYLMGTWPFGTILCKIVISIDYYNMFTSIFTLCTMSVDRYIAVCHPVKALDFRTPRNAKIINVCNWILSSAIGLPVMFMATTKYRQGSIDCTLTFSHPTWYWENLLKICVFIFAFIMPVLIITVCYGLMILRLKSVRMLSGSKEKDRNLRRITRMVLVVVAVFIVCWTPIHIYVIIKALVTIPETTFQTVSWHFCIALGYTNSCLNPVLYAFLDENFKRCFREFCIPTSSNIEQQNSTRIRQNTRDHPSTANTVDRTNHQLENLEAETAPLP
Method: as §1, §2, §3, §4, §5, §6, §7, §8, §9, §10, §11, §12, §13, §14

[5] = Brain distribution study of intravenous injection in rats; details: rat, 1 mg/kg, brain tissue to plasma concentration ratio; for B/P ratio (0.25 h): 0.25 h after dosing; for B/P ratio (2 h): 2 h after dosing
Method: 2. Brain Distribution Study of Intravenous Injection of Dezocine and Analogues Thereof in Rats
Intravenously injecting the test compound solution in the same manner as example 1 at a dose of 1 mg/kg. Executing animals with carbon dioxide 15 minutes and 2 hours after dosing, collecting whole blood and brain tissue sample, centrifugating the whole blood to obtain plasma, and homogenizing the brain tissue with triple volumes of deionized water. Analyzing drug concentration of the plasma and brain homogenate samples by LC-MS/MS method, and calculating the concentration ratio of brain tissue to plasma (B/P ratio).

[6] = target: T3, κ opioid receptor (Homo sapiens, UniProt P41145); test: FLIPR intracellular calcium signal test, HEK293-κ cells; assay type: cell-based; details: for pEC50: EC50 (activation) test, read-out: Kapp receptor EC50; for pIC50: IC50 (inhibition) test against EC80 of positive agonist, read-out: Kapp receptor IC50
T3 construct: expressed in transfected cells
T3 sequence (P41145 whole entry): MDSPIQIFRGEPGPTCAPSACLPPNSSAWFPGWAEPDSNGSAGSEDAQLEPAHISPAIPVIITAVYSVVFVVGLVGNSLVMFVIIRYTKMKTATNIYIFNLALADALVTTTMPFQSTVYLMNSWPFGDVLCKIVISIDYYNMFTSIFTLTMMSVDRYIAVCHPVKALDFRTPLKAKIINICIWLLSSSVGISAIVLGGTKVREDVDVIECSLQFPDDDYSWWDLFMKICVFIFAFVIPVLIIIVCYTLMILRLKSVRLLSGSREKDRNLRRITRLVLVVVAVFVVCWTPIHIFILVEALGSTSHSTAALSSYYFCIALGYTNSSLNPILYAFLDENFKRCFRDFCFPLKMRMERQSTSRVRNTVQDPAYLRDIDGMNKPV
Method: as §1, §2, §3, §4, §5, §6, §7, §8, §9, §10, §11, §12, §13, §14

Compound | pEC50 [2] | pIC50 [2] | AUC(0-t) [3] | C0 [3] | MRT last [3] | Vd [3] | clearance [3] | half-life [3] | pEC50 [4] | pIC50 [4] | B/P ratio (0.25 h) [5] | B/P ratio (2 h) [5] | pEC50 [6] | pIC50 [6] | other results
C[C@@]12CCCCC[C@@H](Cc3c(F)cc(OC(=O)CCCCC(=O)Oc4cc(F)c5c(c4)[C@@]4(C)CCCCC[C@@H](C5)[C@@H]4N)cc31)[C@@H]2N [Compound 34] |  |  |  |  |  |  |  |  |  |  |  |  |  |  | AUC(0-t) ([1]; 20 umol/kg, carboxylic diester prodrug 20 μmol/kg, analyte: prodrug itself, read-out: AUC0-last of the prodrug): 0.00295 µM·h; Cmax ([1]; 20 umol/kg, carboxylic diester prodrug 20 μmol/kg, analyte: prodrug itself, read-out: Cmax of the prodrug): 3.91 nM; MRT last ([1]; 20 umol/kg, carboxylic diester prodrug 20 μmol/kg, analyte: prodrug itself, read-out: MRT0-last of the prodrug): 0.539 h; Tmax ([1]; 20 umol/kg, carboxylic diester prodrug 20 μmol/kg, analyte: prodrug itself, read-out: Tmax of the prodrug): 0.25 h
C[C@]12CCCCC[C@@H](Cc3c(Cl)cc(O)cc31)[C@@H]2N [Compound 23] | < 4.00 | < 4.00 | 0.341 µM·h | 362 nM | 1.65 h | 20.6 L/kg | 165 mL/min/kg | 1.6 h | ≥ 7.00 | ≥ 7.00 | 16.7 | 27.9 | < 4.00 | 5.00 to 6.00 | 
C[C@@]12CCCCC[C@@H](Cc3c(F)cc(O)cc31)[C@@H]2N [Compound 21] | < 4.00 | 5.00 to 6.00 | 0.387 µM·h | 493 nM | 1.35 h | 16.2 L/kg | 155 mL/min/kg | 1.42 h | ≥ 7.00 | ≥ 7.00 | 13.3 | 19.8 | < 4.00 | 5.00 to 6.00 | half-life ([1]; 40 umol/kg, Compound 21 itself dosed at 40 μmol/kg, sesame oil suspension): 4.2 h; AUC(0-t) ([1]; 40 umol/kg, Compound 21 itself dosed at 40 μmol/kg, sesame oil suspension, read-out: AUC0-last): 3.99 µM·h; Cmax ([1]; 40 umol/kg, Compound 21 itself dosed at 40 μmol/kg, sesame oil suspension, read-out: Cmax): 1750 nM; MRT last ([1]; 40 umol/kg, Compound 21 itself dosed at 40 μmol/kg, sesame oil suspension, read-out: MRT0-last): 2.82 h; Tmax ([1]; 40 umol/kg, Compound 21 itself dosed at 40 μmol/kg, sesame oil suspension, read-out: Tmax): 0.5 h
